What all share (format): cell-based
Common to all, as to settings: SRB staining
In general terms: In SRB staining, fixed cells bind dye roughly in proportion to their protein.

Assay [1] concerns human skin cancer cell (A431, wild-type EGFR). Briefly: Proliferation inhibition (SRB) on human skin cancer cell A431. The source says:
(§1) The pharmacodynamic action of the compound of the present invention in terms of inhibiting the proliferation of cancer cells may be assayed by conventional methods. […] Inhibition ratio (%)=[(blank control OD−inhibitor OD)/blank control OD]×100%
(§2) Blank control OD: the OD value of the well of normally growed cells without the action of a drug.
(§3) Inhibitor OD: the OD value of the well of cells with the action of the added compounds to be screened.
(§4) The median inhibitory concentration (IC50) value is obtained by the software GraphPad Prism 5.0 by the 4-parameter logistic curve fit calculation. Each experiment is repeated three times, and the average IC50 value for three experiments is used as the final index for the inhibitory ability.
(§5) Cells in the logarithmic phase were inoculated to 96-well culture plates (cell density: 5000/well, cell suspension: 180 μl/well), and cultured at 37° C. under 5% CO2 for 24 hours. After the culturing, the cells adhered to the well walls. Each of compounds was dissolved in DMSO in advance to formulate a […] stock solution. Upon testing, the stock solution was diluted with complete medium to 10 times the target concentration in another 96-cell plate. And then the compound was added at 20 μl/cell in the 96-well plate in which the cells were inoculated, i.e. the target concentration could be reached. The well for each concentration was triplicated, and the blank control was established. Cells continued to be cultured at 37° C. under 5% CO2 for 72 hours. After the termination of culturing, 50 μl pre-cooled (4° C.) 50% trichloroacetic acid, i.e., TCA was added to each of wells (final concentration=10%), and was placed at 4° C. for 1 hour to fix the cells. The resulting matter was washed with purified water for at least 5 times, and dried naturally in air or at 60° C. in an oven. 4 mg/ml Sulforhodamine B (SRB) solution prepared by 1% glacial acetic acid/purified water was added at 100 μl/well to each well so as to stain for 1 hour at room temperature. The supernatant was discarded. The residue was washed with 1% acetic acid for at least 5 times to remove the non-specifically binding, and dried for use. To each well was added 150 μl of 10 mM Tris-HCl solution for dissolving the contents therein.

For assay [2], the system named is human lung cancer cell (HCC827, EGFR Exon 19 deletion activating mutation). Briefly: Proliferation inhibition (SRB) on human lung cancer cell HCC827.
Description: as §1, §2, §3, §4, §5

Assay [3] has as its system human lung cancer cell (H1975, EGFR L858R/T790M resistant mutation). The experiment in a line: Proliferation inhibition (SRB) on human lung cancer cell H1975.
Description: as §1, §2, §3, §4, §5

The text below walks through data of patent publication USRE48687E1, “Pyridinylaminopyrimidine derivatives, preparation process and use thereof” (Shanghai Allist Pharmaceuticals Co., Ltd., priority 2014, dated 2021).

A word on the IC50: it is the concentration that gives 50% inhibition. A higher IC50 goes with weaker potency in that assay. For the compound `C=CC(=O)Nc1cc(Nc2nccc(-c3cn(C)c4cc(F)c(F)cc34)n2)c(OC(C)C)nc1N(C)CCN(C)C` [Example 18 compound, N-{2-{[2-(dimethylamino)ethyl](methyl)amino}-6-isopropyloxy-5-{[4-(1-methyl-5,6-difluoro-1H-indol-3-yl)pyrimidin-2-yl]amino}pyridin-3-yl}acrylamide methanesulfonate], the half-maximal inhibitory concentration (IC50) in assay [1] (72 hours, methanesulfonate) was found to be 341 nM; in assay [2] (72 hours, methanesulfonate), 2.24 nM; in assay [3] (72 hours, methanesulfonate), 5.07 nM.

On to `C=CC(=O)Nc1cc(Nc2ncc(Cl)c(-c3cn(C)c4ncccc34)n2)c(OC(C)C)nc1N(C)CCN(C)C` [Example 19 compound, N-{2-{[2-(dimethylamino)ethyl](methyl)amino}-6-isopropyloxy-5-{[5-chloro-4-(1-methyl-1H-pyrrolo[2,3-b]pyridin-3-yl)pyrimidin-2-yl]amino}pyridin-3-yl}acrylamide], for which the IC50 in assay [1] (Homo sapiens, A-431, 72 h) stood at 209 nM; in assay [2] (Homo sapiens, HCC827, 72 h) it was 2.62 nM; in assay [3] (Homo sapiens, NCI-H1975, 72 h) it was 2.56 nM.

On to `C=CC(=O)Nc1cc(Nc2ncc(Cl)c(-c3cnc4c(ccn4C)c3)n2)c(OC(C)C)nc1N(C)CCN(C)C` [Example 20 compound, N-{2-{[2-(dimethylamino)ethyl](methyl)amino}-6-isopropyloxy-5-{[5-chloro-4-(1-methyl-1H-pyrrolo[2,3-b]pyridin-5-yl)pyrimidin-2-yl]amino}pyridin-3-yl}acrylamide], for which the IC50 in assay [1] (Homo sapiens, A-431, 72 h) came out at 801 nM; in assay [2] (Homo sapiens, HCC827, 72 h), 8.97 nM; in assay [3] (Homo sapiens, NCI-H1975, 72 h) it was 42.4 nM.

Consider `C=CC(=O)Nc1cc(Nc2ncc(Cl)c(-c3cnn(C)c3)n2)c(OC(C)C)nc1N(C)CCN(C)C` [Example 21 compound, N-{2-{[2-(dimethylamino)ethyl](methyl)amino}-6-isopropyloxy-5-{[5-chloro-4-(1-methyl-1H-pyrazol-4-yl)pyrimidin-2-yl]amino}pyridin-3-yl}acrylamide], for which the IC50 in assay [1] (Homo sapiens, A-431, 72 h) was 370 nM; in assay [2] (Homo sapiens, HCC827, 72 h) it was 142 nM; in assay [3] (Homo sapiens, NCI-H1975, 72 h) it was 18.6 nM.

`C=CC(=O)Nc1cc(Nc2ncc(Cl)c(-c3cnc(OC)nc3)n2)c(OC(C)C)nc1N(C)CCN(C)C` [Example 22 compound, N-{2-{[2-(dimethylamino)ethyl](methyl)amino}-6-isopropyloxy-5-{[5-chloro-2′-methoxy-(4,5′-bipyrimidine)-2-yl]amino}pyridin-3-yl}acrylamide]: the IC50 in assay [1] (Homo sapiens, A-431, 72 h) was 2760 nM; in assay [2] (Homo sapiens, HCC827, 72 h), 33.3 nM; in assay [3] (Homo sapiens, NCI-H1975, 72 h), 38 nM.

Turning to `C=CC(=O)Nc1cc(Nc2ncc(Cl)c(-c3cnc(N)nc3)n2)c(OC(C)C)nc1N(C)CCN(C)C` [Example 23 compound, N-{2-{[2-(dimethylamino)ethyl](methyl)amino}-6-isopropyloxy-5-{[5-chloro-2′-amino-(4,5′-bipyrimidine)-2-yl]amino}pyridin-3-yl}acrylamide], the half-maximal inhibitory concentration (IC50) in assay [1] (Homo sapiens, A-431, 72 h) came to 1140 nM; in assay [2] (Homo sapiens, HCC827, 72 h), 3.08 nM; in assay [3] (Homo sapiens, NCI-H1975, 72 h), 30.7 nM.
